Source: ChEMBL document CHEMBL4033732, “Identification and synthesis of novel inhibitors of mycobacterium ATP synthase” (Bioorg Med Chem Lett, 2017)
In brackets after ≈: the same amount, converted by molar mass.

Experiments:
[1] = Inhibition of ATP synathse in Mycobacterium smegmatis str. MC2 155 inverted membrane vesicles assessed as ATP formation pre-incubated for 30 mins before NADH-ADP-phosphate buffer cocktail addition and measured after 60 mins by kinase glow reagent based assay; set-up: species or system Mycolicibacterium smegmatis MC2 155
[2] = test system: Mycobacterium tuberculosis; assay: Antimicrobial activity against Mycobacterium tuberculosis H37Rv assessed as reduction in microbial growth incubated for 5 days by CLSI protocol based assay; format: functional; conditions: 120 h
HeLa = assay: Cytotoxicity against human HeLa cells incubated for 48 hrs by MTT assay; format: functional
[3] = Lipophilicity, log D of the compound; format: physicochemical; conditions: octanol/water
[4] = Solubility in pH 6.8 buffer; format: physicochemical
CYP1A2 = molecular target: T1, CYP1A2 (Homo sapiens, UniProt P05177); assay: Inhibition of CYP1A2 in human liver microsomes at 10 uM; format: ADME
T1 sequence (P05177 whole entry): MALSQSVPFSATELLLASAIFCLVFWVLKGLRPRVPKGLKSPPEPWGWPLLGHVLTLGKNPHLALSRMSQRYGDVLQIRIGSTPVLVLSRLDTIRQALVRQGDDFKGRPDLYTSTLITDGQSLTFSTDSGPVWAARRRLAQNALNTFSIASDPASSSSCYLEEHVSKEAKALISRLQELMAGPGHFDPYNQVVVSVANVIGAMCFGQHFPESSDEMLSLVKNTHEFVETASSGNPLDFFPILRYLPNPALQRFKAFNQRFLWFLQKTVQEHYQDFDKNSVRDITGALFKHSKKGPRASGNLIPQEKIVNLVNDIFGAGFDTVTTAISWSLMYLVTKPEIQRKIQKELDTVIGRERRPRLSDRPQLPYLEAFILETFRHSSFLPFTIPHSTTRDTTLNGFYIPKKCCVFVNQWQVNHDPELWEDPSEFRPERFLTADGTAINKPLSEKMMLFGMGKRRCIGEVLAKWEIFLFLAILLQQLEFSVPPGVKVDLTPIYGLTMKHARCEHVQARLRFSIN

CYP2C9 = CYP2C9 (Homo sapiens, UniProt P11712); assay: Inhibition of CYP2C9 in human liver microsomes at 10 uM; format: ADME
CYP2C9, sequence (P11712 whole entry): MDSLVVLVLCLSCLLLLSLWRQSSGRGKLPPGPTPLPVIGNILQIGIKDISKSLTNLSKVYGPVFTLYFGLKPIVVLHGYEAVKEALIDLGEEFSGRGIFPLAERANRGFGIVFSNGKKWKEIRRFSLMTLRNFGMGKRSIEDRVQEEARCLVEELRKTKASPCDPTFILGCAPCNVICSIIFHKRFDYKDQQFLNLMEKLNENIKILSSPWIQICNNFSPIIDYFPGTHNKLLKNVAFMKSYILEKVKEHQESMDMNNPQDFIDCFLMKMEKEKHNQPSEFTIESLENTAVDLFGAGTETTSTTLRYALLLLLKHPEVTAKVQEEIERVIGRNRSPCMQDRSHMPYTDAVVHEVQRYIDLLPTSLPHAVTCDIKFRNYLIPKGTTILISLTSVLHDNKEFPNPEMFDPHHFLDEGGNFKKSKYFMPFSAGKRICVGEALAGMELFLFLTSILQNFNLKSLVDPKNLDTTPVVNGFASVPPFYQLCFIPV

CYP2C19 = CYP2C19 (Homo sapiens, UniProt P33261); assay: Inhibition of CYP2C19 in human liver microsomes at 10 uM; format: ADME
CYP2C19, sequence (P33261 whole entry): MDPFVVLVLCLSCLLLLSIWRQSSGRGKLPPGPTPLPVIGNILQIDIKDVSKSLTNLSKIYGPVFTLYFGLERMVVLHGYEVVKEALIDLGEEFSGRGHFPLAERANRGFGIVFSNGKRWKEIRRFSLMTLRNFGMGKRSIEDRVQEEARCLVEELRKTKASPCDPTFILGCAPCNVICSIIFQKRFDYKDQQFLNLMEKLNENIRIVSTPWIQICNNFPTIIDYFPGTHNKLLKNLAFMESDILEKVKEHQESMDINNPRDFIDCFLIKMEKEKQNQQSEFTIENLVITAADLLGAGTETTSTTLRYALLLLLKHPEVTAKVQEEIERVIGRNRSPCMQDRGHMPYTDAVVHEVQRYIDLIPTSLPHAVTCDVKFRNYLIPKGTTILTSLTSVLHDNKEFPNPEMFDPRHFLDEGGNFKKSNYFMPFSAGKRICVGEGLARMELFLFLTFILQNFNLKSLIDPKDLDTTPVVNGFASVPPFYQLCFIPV

CYP2D6 = CYP2D6 (Homo sapiens, UniProt P10635); assay: Inhibition of CYP2D6 in human liver microsomes at 10 uM; format: ADME
CYP2D6, sequence (P10635 whole entry): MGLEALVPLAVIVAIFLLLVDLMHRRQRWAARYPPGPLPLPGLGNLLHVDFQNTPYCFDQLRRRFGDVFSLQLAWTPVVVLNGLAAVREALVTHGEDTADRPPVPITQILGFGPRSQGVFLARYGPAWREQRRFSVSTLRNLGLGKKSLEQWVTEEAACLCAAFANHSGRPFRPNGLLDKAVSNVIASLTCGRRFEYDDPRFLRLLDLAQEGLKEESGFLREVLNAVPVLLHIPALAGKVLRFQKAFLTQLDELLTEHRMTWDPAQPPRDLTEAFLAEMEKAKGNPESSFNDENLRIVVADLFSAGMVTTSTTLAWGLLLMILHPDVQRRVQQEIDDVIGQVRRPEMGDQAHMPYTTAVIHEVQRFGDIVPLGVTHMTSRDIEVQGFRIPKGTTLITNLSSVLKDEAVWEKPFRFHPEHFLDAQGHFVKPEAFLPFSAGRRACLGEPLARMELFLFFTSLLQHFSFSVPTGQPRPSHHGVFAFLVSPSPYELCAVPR

CYP3A4 = CYP3A4 (Homo sapiens, UniProt P08684); assay: Inhibition of CYP3A4 in human liver microsomes at 10 uM; format: ADME
CYP3A4, sequence (P08684 whole entry): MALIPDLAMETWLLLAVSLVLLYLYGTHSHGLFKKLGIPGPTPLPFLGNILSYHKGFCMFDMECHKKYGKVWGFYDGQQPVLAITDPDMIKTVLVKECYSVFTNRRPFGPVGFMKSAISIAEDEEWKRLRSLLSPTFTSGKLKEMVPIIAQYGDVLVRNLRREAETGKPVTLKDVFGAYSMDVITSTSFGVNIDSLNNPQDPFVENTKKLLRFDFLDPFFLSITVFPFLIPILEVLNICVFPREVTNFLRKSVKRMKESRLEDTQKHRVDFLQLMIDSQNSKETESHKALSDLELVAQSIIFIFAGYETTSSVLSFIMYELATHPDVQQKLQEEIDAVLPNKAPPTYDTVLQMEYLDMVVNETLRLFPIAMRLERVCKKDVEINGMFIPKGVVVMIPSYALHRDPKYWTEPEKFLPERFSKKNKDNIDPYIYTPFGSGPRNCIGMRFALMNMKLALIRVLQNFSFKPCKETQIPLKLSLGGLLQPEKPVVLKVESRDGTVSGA

SMILES	IC50 [1] [µM]	MIC [2] [µg/mL]	GI50 (HeLa) [µg/mL]	logD [3]	solubility [4] [µg/mL]	inhibition at 10 µM (CYP1A2) [%]	inhibition at 10 µM (CYP2C9) [%]	inhibition at 10 µM (CYP2C19) [%]	inhibition at 10 µM (CYP2D6) [%]	inhibition at 10 µM (CYP3A4) [%]
O=C(c1cc2n(c1)CCN(Cc1ccc(Cl)c(Cl)c1)C2=O)N1CCCCC1	1.55	8	> 100							
COc1nc2ccc(Br)cc2cc1C(c1ccccc1)C(O)(CCN(C)C)c1cccc2ccccc12 (racemic)	0.02	0.25								
CC(C)(C)c1ccc(Cn2ccn3cc(C(=O)N4CCCCC4)nc3c2=O)cc1	4.7	> 32	> 100	4.1	2.7 (≈ 6.88 µM)	0	2	0	6	0
O=C(c1cc2n(n1)CCN(Cc1cccc(-c3ccccc3)c1)C2=O)N1CCCCC1	0.046	8	> 100							
CN(C)C(=O)c1cc2n(n1)CCN(Cc1ccc(Cl)c(Cl)c1)C2=O	> 10	> 32								
O=C(c1cc2n(n1)CCN(Cc1ccc(Cl)cc1)C2=O)N1CCCCC1	1.05	8	> 100							
CC(C)(C)c1ccc(Cn2ccn3nc(C(=O)N4CCCCC4)cc3c2=O)cc1	0.28	2	32 (≈ 81.4 µM)	3.7	< 1	0	46	31	14	0
O=C(c1cc2n(n1)CCCN(Cc1ccc(Cl)c(Cl)c1)C2=O)N1CCCCC1	0.29	8	> 100	2.1	109 (≈ 259 µM)	13	13	0	0	0
CN1CCn2nc(C(=O)N3CCCCC3)cc2C1=O	> 10	> 32								
O=C(c1cc2n(n1)CCN(Cc1cccc(Cl)c1)C2=O)N1CCCCC1	0.11	8	> 100							
O=C(c1cc2n(n1)CCN(c1ccc(Cl)c(Cl)c1)C2=O)N1CCCCC1	> 10	> 32								
O=C(c1cc2n(n1)CCN(Cc1ccccc1Cl)C2=O)N1CCCCC1	> 10	> 32								
O=C(c1cc2n(n1)C(O)CN(Cc1ccc(Cl)c(Cl)c1)C2=O)N1CCCCC1 (stereo not drawn)	1.05	32	> 100	3.1	< 1	1	24	31	21	0
CC(C)(C)c1ccc(CN2CCn3nc(C(=O)N4CCCCC4)cc3C2=O)cc1	0.29	8	> 100	4	54 (≈ 137 µM)	17	19	0	0	0
CC(c1ccc(Cl)c(Cl)c1)N1CCn2nc(C(=O)N3CCCCC3)cc2C1=O (racemic)	> 10	> 32								
O=C(c1cc2n(n1)CCN(Cc1ccccc1)C2=O)N1CCCCC1	> 10	> 32								
O=C(c1cc2c(=O)n(Cc3ccc(Cl)c(Cl)c3)ccn2n1)N1CCCCC1	0.81	4	> 100	3.5	< 1	0	28	11	30	0
CN(C)CCOc1ccc(NC(=O)c2cc3n(n2)CCN(Cc2ccc(Cl)c(Cl)c2)C3=O)cc1	> 10	> 32								
O=C(c1cn2ccn(Cc3ccc(Cl)c(Cl)c3)c(=O)c2n1)N1CCCCC1	0.52	4	> 100	3.6	1.2 (≈ 2.96 µM)	3	0	6	0	0
O=C(c1cc2n(n1)CCN(Cc1ccc(Cl)c(Cl)c1)C2=O)N1CCCCC1	0.27	16	> 100	3.8	7.2 (≈ 17.7 µM)	13	11	0	0	16
CC(C)(C)OC(=O)N1CCN(C(=O)c2cc3n(n2)CCN(Cc2ccc(Cl)c(Cl)c2)C3=O)CC1	> 10	> 32								
CC(=O)N1CCN(C(=O)c2cc3n(n2)CCN(Cc2ccc(Cl)c(Cl)c2)C3=O)CC1	> 10	> 32								
O=C(c1cc2n(n1)CCN(Cc1ccc(Cl)c(Cl)c1)C2=O)N1CCCC1	> 10	> 32								
O=C(c1cc2n(n1)CCN(CC1CCCCC1)C2=O)N1CCCCC1	> 10	> 32								
O=C(c1cc2n(n1)CCN(Cc1ccc(Cl)c(Cl)c1)C2=O)N1CCNCC1	> 10	> 32								
O=C(c1cc2n(n1)CCN(Cc1ccc(Cl)c(Cl)c1)C2=O)N1CCC(c2ccccc2)CC1	> 10	> 32								
CC(C)(C)c1ccc(CN2CC(O)n3nc(C(=O)N4CCCCC4)cc3C2=O)cc1 (stereo not drawn)	3.3	16	> 100	3	40 (≈ 97.4 µM)	0	29	4	48	0
Cc1cccc(CN2CCn3nc(C(=O)N4CCCCC4)cc3C2=O)c1	0.042	16	> 100							
Cc1ccc(CN2CCn3nc(C(=O)N4CCCCC4)cc3C2=O)cc1	0.52	8	> 100							
CN1CCN(C(=O)c2cc3n(n2)CCN(Cc2ccc(Cl)c(Cl)c2)C3=O)CC1	> 10	> 32								
